Experimental data: patent publication US20180228799A1, “Treatment for Neurological and Mental Disorders” (PSYCHOGENICS, INC., priority 2008, published 2018)

Tested on: rats
Assay: Radial arm maze, scopolamine-induced working memory deficit
Format: in vivo
Details: scopolamine 0.5 mg/kg IP, FIG. 2
Method: Several mazes, such as the radial arm maze (RAM) have been adapted to assess working memory in rodents. The RAM consists of eight long runways radiating out in a circle from a central compartment. In the RAM rats learn to retrieve food rewards from all or a sub-set of the arms. Working memory is assessed by measuring entries into previously baited arms within a given trial. […] Hippocampal lesions produce deficits both in adults and in the neonatal hippocampal lesion model of schizophrenia.
For training, food deprived rats were placed in an enclosed cylinder in the center of the maze for 20 s, prior to being allowed to explore the maze by removing the cylinder. Each radial arm is baited with a food reward. Animals were given a maximum of 5 minutes to retrieve all food rewards. This training continued once daily for three weeks until animals met the performance criteria for successful acquisition of the task.
Four parameters were recorded to assess the performance of the rat: (1) the number of errors, which is defined as entering an arm that had already been entered, (2) the number of consecutive entries into un-visited arms before the first error occurred (entries to repeat), (3) latency to complete the task, and (4) the total number of arm entries before all food in the eight arms is collected or the maximum session duration is reached. […]

`CN1[C@@H]2C[C@@H](OC(=O)[C@H](CO)c3ccccc3)C[C@H]1[C@@H]1O[C@@H]12` [scopolamine, reference compound] was tested, and the “Entries to repeat in the radial arm maze compared to baseline” value was “decreased entries to repeat”.
